Like-named read-outs stand apart in the source and are kept apart here.
Columns and labels:
[1] = test system: MDA-MB-231 cells; assay: Sulforhodamine B antiproliferative assay, MDA-MB-231; format: cell-based, human; details: for IC50: sulforhodamine B assay, 48 h of treatment, read-out: IC50 MDA-MDB-231 (A); for SI E/A / SI D/A: selectivity index; for SI E/A: HFF-1 vs MDA-MB-231; for SI D/A: MCF12A vs MDA-MB-231
Protocol: (§1) The antiproliferative effect of the isolated compounds (1–11) was investigated by the sulforhodamine B assay against human triple-negative breast cancer cell lines (MDA-MB-468 and MDA-MB-231) and breast ductal carcinoma cells (MCF-7) and the non-tumorigenic fibroblast (HFF-1) and breast cell lines (MCF12A). The IC50 values were determined after 48 h of treatment (Table 1).
(§2) Human breast adenocarcinoma MDA-MB-231, MDA-MB-468, and MCF-7 cell lines and non-tumorigenic foreskin fibroblast (HFF-1) and breast (MCF12A) cell lines were purchased from American Type Culture Collection (ATCC, Rockville, MD, USA). All cancer cell lines, except MCF12A, were routinely cultured in RPMI-1640 medium with glutamine from Corning (VWR, Carnaxide, Portugal) supplemented with 10% fetal bovine serum (FBS) from Biowest (Labclinics, Barcelona, Spain). MCF12A cells were cultured in a 1:1 mixture of Dulbecco’s modified Eagle’s medium and Ham’s F12 medium, 20 ng/mL human epidermal growth factor, 100 ng/mL cholera toxin, 0.01 mg/mL bovine insulin, and 500 ng/mL hydrocortisone and supplemented with 10% FBS. All cells were maintained in a humidified incubator at 37 °C with 5% CO2. All cells were routinely tested for mycoplasma contamination using the MycoAlertTM PLUS detection kit (Lonza, Basel, Switzerland).
(§3) Human cell lines were seeded in 96-well plates at a density of 5.0 × 10^3 (MDA-MB-231, MCF-7, HFF-1, and MCF12A) and 7.5 × 10^3 (MDA-MB-468) cells/well and allowed to adhere for 24 h. Cells were treated with serial dilutions of compounds (ranging from 0.1 to 40 μM) for an additional 48 h. Effect on cell proliferation was measured by sulforhodamine B assay, as described in [33], and the half-maximal inhibitory concentration (IC50) was then determined for each cell line using the GraphPad Prism software version 7.0 (La Jolla, CA, USA).

[2] = test system: MDA-MB-468 cells; assay: Sulforhodamine B antiproliferative assay, MDA-MB-468; format: cell-based, human; details: for IC50: sulforhodamine B assay, 48 h of treatment; for SI E/B / SI D/B: selectivity index; for SI E/B: HFF-1 vs MDA-MB-468; for SI D/B: MCF12A vs MDA-MB-468
Protocol: as §1, §2, §3

[3] = test system: MCF-7 cells; assay: Sulforhodamine B antiproliferative assay, MCF-7; format: cell-based, human; details: for IC50: sulforhodamine B assay, 48 h of treatment, read-out: IC50 MCF-7 (C); for SI E/C / SI D/C: selectivity index; for SI E/C: HFF-1 vs MCF-7; for SI D/C: MCF12A vs MCF-7
Protocol: as §1, §2, §3

[4] = test system: MCF12A cells; assay: Sulforhodamine B antiproliferative assay, non-tumorigenic breast MCF12A; format: cell-based; details: Homo sapiens, MCF-12A, 48 h of treatment, read-out: IC50 MCF12A (D)
Protocol: as §1, §2, §3

[5] = test system: HFF-1 cells; assay: Sulforhodamine B antiproliferative assay, non-tumorigenic fibroblast HFF-1; format: cell-based; details: Homo sapiens, 48 h of treatment, read-out: IC50 HFF-1 (E)
Protocol: as §1, §2, §3

[6] = test system: breast cancer cell lines (MDA-MB-231, MDA-MB-468, MCF-7); assay: Sulforhodamine B assay, all breast cancer cell lines; format: cell-based; details: Homo sapiens, read-out: IC50 values against all breast cancer cell lines
Protocol: Aiming to find Amaryllidaceae alkaloids against breast cancer, including the highly aggressive triple-negative breast cancer, the phytochemical study of Pancratium maritimum was carried out. Several Amaryllidaceae-type alkaloids, bearing scaffolds of the haemanthamine-, homolycorine-, lycorine-, galanthamine-, and tazettine-type were isolated (3–11), along with one alkamide (2) and a phenolic compound (1). The antiproliferative effect of compounds (1–11) was evaluated by the sulforhodamine B assay against triple-negative breast cancer cell lines MDA-MB-231 and MDA-MB-468, breast cancer cells MCF-7, and the non-malignant fibroblast (HFF-1) and breast (MCF12A) cell lines. […] The homolycorine-type alkaloid 7 was selected for further investigation in MDA-MB-231 cells. In the annexin-V assay, compound 7 increased cell death by apoptosis, which was substantiated, in western blot analyses, by the increased expression of the pro-apoptotic protein Bax, and the decreased expression of the anti-apoptotic protein Bcl-xL. Consistently, it further stimulated mitochondrial reactive oxygen species (ROS) generation. The antiproliferative effect of compound 7 was also associated with G2/M cell cycle arrest, which was supported by an increase in the p21 protein expression levels.
as §3

[7] = test system: MDA-MB-231 cells; set-up: method as in PMID 28756149; details: previous studies ref 30; cited from earlier work
[8] = range over the four alkaloids and MDA-MB-231, MDA-MB-468, MCF-7

Row | Structure (SMILES) | IC50 ([1]; Homo sapiens, MDA-MB-231, 48 h) [µM] | SI E/A [1] | SI D/A [1] | SI E/B [2] | SI D/B [2] | SI E/C [3] | IC50 [4] [µM] | IC50 [5] [µM] | further results
1 | COc1cc(O)c(C(C)=O)c(OC)c1 [Compound 1, 4,6-dimethoxy-2-hydroxy acetophenone] | > 40 | – | – | – | – | – | – | – | –
2 | COc1cc(/C=C/C(=O)NCCc2ccc(O)cc2)ccc1O [Compound 2, N-trans-feruloyl-tyramine] | > 40 | – | – | – | – | – | – | – | –
3 | CO[C@@H]1C=C[C@@]23c4cc5c(cc4[C@@H](O)N(C[C@H]2O)[C@H]3C1)OCO5 [Compound 3, haemanthidine] | 4.88 | 0.56 | 1.02 | 0.78 | 1.42 | 1.01 | 5 ± 0.5 | 2.7 ± 0.15 | IC50 [1]: 4.9 ± 1.16 µM; IC50 ([2]; Homo sapiens, MDA-MB-468, 48 h): 3.5 ± 0.3 µM; IC50 ([3]; Homo sapiens, MCF7, 48 h): 2.7 ± 0.1 µM; SI D/C [3]: 1.85; IC50 [6, 8]: 0.73 to 16.3 µM; antiproliferative activity against MDA-MB-231 breast cancer cells [7]: antiproliferative activity
4 | CN1CCC2=C[C@H](O)C3OC(=O)c4cc5c(cc4C3C21)OCO5 (stereo partly drawn) [Compound 4, hippeastrine] | 24.7 ± 4.3 | – | – | – | – | – | – | – | –
5 | O[C@H]1[C@H]2c3cc4c(cc3CN3CCC(=C[C@@H]1O)[C@H]23)OCO4 [Compound 5, lycorine] | 0.92 | 1.41 | 3.26 | 0.91 | 2.11 | 1.78 | 3 ± 0.3 | 1.3 ± 0.3 | IC50 [1]: 0.9 ± 0.2 µM; IC50 ([2]; Homo sapiens, MDA-MB-468, 48 h): 1.42 µM; IC50 [2]: 1.4 ± 0.01 µM; IC50 ([3]; Homo sapiens, MCF7, 48 h): 0.73 µM; IC50 [3]: 0.7 ± 0.01 µM; IC50 [6, 8]: 0.73 to 16.3 µM; antiproliferative activity against MDA-MB-231 breast cancer cells [7]: antiproliferative activity
6 | COc1ccc2c3c1O[C@H]1C[C@@H](O)C=C[C@@]31C(O)CN(C)C2 (stereo partly drawn) [Compound 6, 11α-hydroxygalanthamine] | > 40 | – | – | – | – | – | – | – | –
7 | COc1ccc2c3c1O[C@H]1C[C@H](O)C=C[C@@]31CCN(C)C2 [Compound 8, epi-galanthamine] | > 40 | – | – | – | – | – | – | – | –
8 | COc1cc2c(cc1O)C(=O)OC1CC=C3CCN(C)C3C21 (stereo not drawn) [Compound 9, 8-O-demethylhomolycorine] | > 40 | – | – | – | – | – | – | – | –
9 | CO[C@@H]1C=C[C@@]23c4cc5c(cc4CO[C@]2(O)CN(C)[C@H]3C1)OCO5 [Compound 10, tazettine] | 39 ± 1.41 | – | – | – | – | – | – | – | –
10 | COC1C=CC23c4cc5c(cc4CN(CC2O)C3C1)OCO5 (stereo not drawn) [Compound 11, haemanthamine] | 3.95 | 0.68 | 1.64 | 0.71 | 1.71 | 1.7 | 6.5 ± 1.1 | 2.7 ± 0.72 | IC50 [1]: 3.9 ± 0.97 µM; IC50 ([2]; Homo sapiens, MDA-MB-468): 3.8 ± 0.4 µM; IC50 ([3]; Homo sapiens, MCF7): 1.6 ± 0.1 µM; IC50 [6]: 0.73 to 16.3 µM; antiproliferative activity against MDA-MB-231 breast cancer cells [7]: antiproliferative activity
11 | COc1cc([C@@H]2c3cc4c(cc3[C@@H](O[C@@H]3O[C@@H]5CO[C@@H](C)O[C@H]5[C@H](O)[C@H]3O)[C@H]3COC(=O)[C@H]23)OCO4)cc(OC)c1O [Etoposide, reference compound] | 2.9 ± 0.1 | 1.31 | 0.79 | 2.23 | 1.35 | 1.23 | 2.3 ± 0.13 | 3.8 ± 0.09 | IC50 ([2]; Homo sapiens, MDA-MB-468, 48 h): 1.7 ± 0.05 µM; IC50 ([3]; Homo sapiens, MCF7, 48 h): 3.1 ± 0.05 µM; SI D/C [3]: 0.74

— publication PMC9501014, “Amaryllidaceae-Type Alkaloids from Pancratium maritimum: Apoptosis-Inducing Effect and Cell Cycle Arrest on Triple-Negative Breast Cancer Cells” (Molecules, 2022)
